The text below walks through data of PubChem BioAssay (NCI).

SMILES strings stand for the structures.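 Test compounds were applied to cells in 96-well plates for 48 hours at 5 doses. The concentration for full growth arrest is given as TGI.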

One assay has as its system NCI-H460 lung. As to the kind of experiment: NCI-60 cell line screen, 48 h.
Consider `NP(=O)(OCC1=CC(=O)c2ccccc2C1=O)N(CCBr)CCBr` (stereo not drawn), for which the TGI worked out at 16 µM.

A further assay relates to BT-549 breast. Description: NCI-60 cell line screen, 48 h.
Take `CCOC(=O)c1ccc(N2C(=S)N(C(=O)c3ccccc3)C(=Nc3ccccc3)C2=Nc2ccccc2)cc1`: the TGI is above 100 µM.

A further assay relates to PC-3 prostate. Description: NCI-60 cell line screen, 48 h.
Molecule `COC(=O)[C@@H]1CCCN1CCN1CCC[C@H]1C(=O)OC` gave a TGI above 100 µM.

As to `CCOc1ccc(-c2nc(-c3oc4ccccc4c(=O)c3OC(C)=O)cs2)cc1`, the TGI is above 10 µM.

For `CCOC(=O)c1ccc(N2C(=S)N(C(=O)c3ccccc3)C(=Nc3ccccc3)C2=Nc2ccccc2)cc1`, the TGI was above 100 µM.

As to `NP(=O)(OCC1=CC(=O)c2ccccc2C1=O)N(CCBr)CCBr` (stereo not drawn), the TGI is 46 µM.

The test system of the next assay is LOX IMVI melanoma. Description: NCI-60 cell line screen, 48 h.
`CCOc1ccc(-c2nc(-c3oc4ccccc4c(=O)c3OC(C)=O)cs2)cc1` came in with a TGI above 10 µM.

Turning to `NP(=O)(OCC1=CC(=O)c2ccccc2C1=O)N(CCBr)CCBr` (stereo not drawn), the TGI was determined as 29.1 µM.

The test system of another assay is K-562 leukemia. As to the kind of experiment: NCI-60 cell line screen, 48 h.
In turn, `COC(=O)[C@@H]1CCCN1CCN1CCC[C@H]1C(=O)OC` showed a TGI above 100 µM.

`CCOc1ccc(-c2nc(-c3oc4ccccc4c(=O)c3OC(C)=O)cs2)cc1` gave a TGI above 10 µM.

`CCOC(=O)c1ccc(N2C(=S)N(C(=O)c3ccccc3)C(=Nc3ccccc3)C2=Nc2ccccc2)cc1` gave a TGI above 100 µM.

`NP(=O)(OCC1=CC(=O)c2ccccc2C1=O)N(CCBr)CCBr` (stereo not drawn): the TGI was above 100 µM.

The next assay deals with OVCAR-3 ovarian. Description: NCI-60 cell line screen, 48 h.
`COC(=O)[C@@H]1CCCN1CCN1CCC[C@H]1C(=O)OC` showed a TGI above 100 µM.

`CCOC(=O)c1ccc(N2C(=S)N(C(=O)c3ccccc3)C(=Nc3ccccc3)C2=Nc2ccccc2)cc1` registered a TGI above 100 µM.

`NP(=O)(OCC1=CC(=O)c2ccccc2C1=O)N(CCBr)CCBr` (stereo not drawn) registered a TGI above 25.6 µM.

For the next assay, the system named is OVCAR-4 ovarian. As to the kind of experiment: NCI-60 cell line screen, 48 h.
In the case of `COC(=O)[C@@H]1CCCN1CCN1CCC[C@H]1C(=O)OC`, the TGI is above 100 µM.

`NP(=O)(OCC1=CC(=O)c2ccccc2C1=O)N(CCBr)CCBr` (stereo not drawn): the TGI was found to be 31.6 µM.

The next assay relates to MCF7 breast. As to the kind of experiment: NCI-60 cell line screen, 48 h.
The molecule `COC(=O)[C@@H]1CCCN1CCN1CCC[C@H]1C(=O)OC` came in with a TGI above 100 µM.

With `CCOc1ccc(-c2nc(-c3oc4ccccc4c(=O)c3OC(C)=O)cs2)cc1`, the TGI was above 10 µM.

`CCOC(=O)c1ccc(N2C(=S)N(C(=O)c3ccccc3)C(=Nc3ccccc3)C2=Nc2ccccc2)cc1` registered a TGI above 100 µM.

Molecule `NP(=O)(OCC1=CC(=O)c2ccccc2C1=O)N(CCBr)CCBr` (stereo not drawn) yielded a TGI above 40.9 µM.

The test system of another assay is DU-145 prostate. Description: NCI-60 cell line screen, 48 h.
In the case of `COC(=O)[C@@H]1CCCN1CCN1CCC[C@H]1C(=O)OC`, the TGI was above 100 µM.

For the molecule `CCOc1ccc(-c2nc(-c3oc4ccccc4c(=O)c3OC(C)=O)cs2)cc1`, the TGI was above 10 µM.

With `CCOC(=O)c1ccc(N2C(=S)N(C(=O)c3ccccc3)C(=Nc3ccccc3)C2=Nc2ccccc2)cc1`, the TGI was above 100 µM.

The molecule `NP(=O)(OCC1=CC(=O)c2ccccc2C1=O)N(CCBr)CCBr` (stereo not drawn) had a TGI of 18.1 µM.

The test system of another assay is SR leukemia. Description: NCI-60 cell line screen, 48 h.
`COC(=O)[C@@H]1CCCN1CCN1CCC[C@H]1C(=O)OC` registered a TGI of 86.6 µM.

Take `CCOc1ccc(-c2nc(-c3oc4ccccc4c(=O)c3OC(C)=O)cs2)cc1`: the TGI was above 10 µM.

In turn, `CCOC(=O)c1ccc(N2C(=S)N(C(=O)c3ccccc3)C(=Nc3ccccc3)C2=Nc2ccccc2)cc1` returned a TGI above 100 µM.

With `NP(=O)(OCC1=CC(=O)c2ccccc2C1=O)N(CCBr)CCBr` (stereo not drawn), the TGI is 9.75 µM.

The test system of another assay is IGROV1 ovarian. Description: NCI-60 cell line screen, 48 h.
Consider `CCOc1ccc(-c2nc(-c3oc4ccccc4c(=O)c3OC(C)=O)cs2)cc1`, for which the TGI is above 10 µM.

As for `CCOC(=O)c1ccc(N2C(=S)N(C(=O)c3ccccc3)C(=Nc3ccccc3)C2=Nc2ccccc2)cc1`, the TGI is above 100 µM.

For the molecule `NP(=O)(OCC1=CC(=O)c2ccccc2C1=O)N(CCBr)CCBr` (stereo not drawn), the TGI turned out to be 38.3 µM.

A further assay concerns OVCAR-8 ovarian. Description: NCI-60 cell line screen, 48 h.
In turn, `COC(=O)[C@@H]1CCCN1CCN1CCC[C@H]1C(=O)OC` had a TGI above 100 µM.

`CCOc1ccc(-c2nc(-c3oc4ccccc4c(=O)c3OC(C)=O)cs2)cc1` displayed a TGI above 10 µM.

`CCOC(=O)c1ccc(N2C(=S)N(C(=O)c3ccccc3)C(=Nc3ccccc3)C2=Nc2ccccc2)cc1` returned a TGI above 100 µM.

In turn, `NP(=O)(OCC1=CC(=O)c2ccccc2C1=O)N(CCBr)CCBr` (stereo not drawn) came in with a TGI of 37.2 µM.

The test system of the next assay is RPMI-8226 leukemia. As to the kind of experiment: NCI-60 cell line screen, 48 h.
For `COC(=O)[C@@H]1CCCN1CCN1CCC[C@H]1C(=O)OC`, the TGI is above 100 µM.

In turn, `CCOc1ccc(-c2nc(-c3oc4ccccc4c(=O)c3OC(C)=O)cs2)cc1` had a TGI above 10 µM.

Take `CCOC(=O)c1ccc(N2C(=S)N(C(=O)c3ccccc3)C(=Nc3ccccc3)C2=Nc2ccccc2)cc1`: the TGI is above 100 µM.

Molecule `NP(=O)(OCC1=CC(=O)c2ccccc2C1=O)N(CCBr)CCBr` (stereo not drawn) gave a TGI above 67.3 µM.

The test system of another assay is MALME-3M melanoma. Description: NCI-60 cell line screen, 48 h.
With `COC(=O)[C@@H]1CCCN1CCN1CCC[C@H]1C(=O)OC`, the TGI was above 100 µM.

For `CCOc1ccc(-c2nc(-c3oc4ccccc4c(=O)c3OC(C)=O)cs2)cc1`, the TGI is above 10 µM.

`CCOC(=O)c1ccc(N2C(=S)N(C(=O)c3ccccc3)C(=Nc3ccccc3)C2=Nc2ccccc2)cc1` registered a TGI above 100 µM.

In turn, `NP(=O)(OCC1=CC(=O)c2ccccc2C1=O)N(CCBr)CCBr` (stereo not drawn) gave a TGI of 4.6 µM.

The subject of another assay is 786-0 renal. Description: NCI-60 cell line screen, 48 h.
Molecule `COC(=O)[C@@H]1CCCN1CCN1CCC[C@H]1C(=O)OC` returned a TGI above 100 µM.

Turning to `CCOc1ccc(-c2nc(-c3oc4ccccc4c(=O)c3OC(C)=O)cs2)cc1`, the TGI is above 10 µM.

For `CCOC(=O)c1ccc(N2C(=S)N(C(=O)c3ccccc3)C(=Nc3ccccc3)C2=Nc2ccccc2)cc1`, the TGI is above 100 µM.

`NP(=O)(OCC1=CC(=O)c2ccccc2C1=O)N(CCBr)CCBr` (stereo not drawn) came in with a TGI of 28.6 µM.
